Assay results: the RepoRT retention time repository (doi:10.1016/j.chroma.2012.12.030)

Assay: RP, Waters ACQUITY UPLC BEH C18, 100 × 2.1 mm, 1.7 µm, 60 °C, 0.3 mL/min, estimated dead time 0.73 min; A: water + 0.01% formic acid; B: methanol + 0.01% formic acid; gradient (min/%B) 0/10 14/90 16/90
Conditions: stereoisomer not certain

Q: Which LC retention time does the source give for `CC(C)N1C(=O)c2ccccc2NS1(=O)=O` here?
A: 6.66 min

Q: Which LC retention time does the source give for `CC(C)N1C(=O)N(c2ccccc2)CSC1=NC(C)(C)C` here?
A: 13.1 min

Q: Which LC retention time does the source give for `O=C(OC1CC2CCC([NH2+]2)C1C(=O)[O-])c1ccccc1` (stereo unspecified) here?
A: 4.3 min

Q: For `CCNc1nc(NC(C)(C)C)nc(SC)n1`, which LC retention time is on record?
A: 10.6 min

Q: Which LC retention time does the source give for `CC(C(=O)O)c1cccc(C(=O)c2ccccc2)c1` (stereo unspecified) here?
A: 9.5 min

Q: Which LC retention time does the source give for `COC=C(C(=O)OC)c1ccccc1Oc1cc(Oc2ccccc2C#N)ncn1` here?
A: 10 min

Q: With `CCn1cc(C(=O)O)c(=O)c2ccc(C)nc21` as the molecule, how does the LC retention time read?
A: 7.1 min

Q: For `CCn1cc(C(=O)O)c(=O)c2cnc(N3CCNCC3)nc21`, which LC retention time is on record?
A: 2.7 min

Q: With `CCOC(=O)c1ccc(O)cc1` as the molecule, how does the LC retention time read?
A: 7.54 min

Q: For `COCC(=O)N(c1c(C)cccc1C)C(C)C(=O)OC` (stereo unspecified), which LC retention time is on record?
A: 9.09 min

Q: For `COc1ccc(C(CN(C)C)C2(O)CCCCC2)cc1` (stereo unspecified), which LC retention time is on record?
A: 6.34 min

Q: For `c1ccc2[nH]c(-c3cscn3)nc2c1`, which LC retention time is on record?
A: 4.8 min

Q: Which LC retention time does the source give for `O=C1OC(CN2CCOCC2)CN1N=Cc1ccc([N+](=O)[O-])o1` (stereo unspecified) here?
A: 2.64 min

Q: For `CC(=O)Nc1ccc(O)cc1`, which LC retention time is on record?
A: 2.05 min

Q: Which LC retention time does the source give for `COC(=O)Nc1nc2ccccc2[nH]1` here?
A: 3.89 min

Q: Which LC retention time does the source give for `Cc1cc(NS(=O)(=O)c2ccc(N)cc2)no1` here?
A: 3.91 min

Q: With `CNC(C)Cc1ccccc1` (stereo unspecified) as the molecule, how does the LC retention time read?
A: 3.05 min

Q: For `CCOP(=S)(OCC)Oc1cc(C)nc(C(C)C)n1`, which LC retention time is on record?
A: 11.9 min

Q: For `COc1cc2c(c3oc(=O)c4c(c13)CCOC4=O)C1C=COC1O2` (stereo unspecified), which LC retention time is on record?
A: 6.35 min

Q: Which LC retention time does the source give for `CCCCC(C)C(OC(=O)CC(CC(=O)O)C(=O)O)C(CC(C)CCCCCCC(O)CC(O)C(C)N)OC(=O)CC(CC(=O)O)C(=O)O` (stereo unspecified) here?
A: 11 min

Q: For `CCC1OC(=O)C(C)C(OC2CC(C)(OC)C(O)C(C)O2)C(C)C(OC2OC(C)CC(N(C)C)C2O)C(C)(O)CC(C)C(=O)C(C)C(O)C1(C)O` (stereo unspecified), which LC retention time is on record?
A: 8.5 min

Q: Which LC retention time does the source give for `CCC(C)C(=O)OC1CC(O)C=C2C=CC(C)C(CCC(O)CC(O)CC(=O)O)C21` (stereo unspecified) here?
A: 9.27 min

Q: Which LC retention time does the source give for `CCC1OC(=O)CC(O)C(C)C(OC2OC(C)C(OC3CC(C)(O)C(O)C(C)O3)C(N(C)C)C2O)C(CC=O)CC(C)C(=O)C=CC(C)=CC1COC1OC(C)C(O)C(OC)C1OC` (stereo unspecified) here?
A: 8.84 min

Q: For `Cc1cc2c(s1)Nc1ccccc1N=C2N1CCN(C)CC1`, which LC retention time is on record?
A: 3.44 min

Q: For `CC(=O)OCC12CC(OC(=O)CC(C)C)C(C)=CC1OC1C(O)C(OC(C)=O)C2(C)C12CO2` (stereo unspecified), which LC retention time is on record?
A: 10 min

Q: With `CCCCOC(=O)c1ccc(O)cc1` as the molecule, how does the LC retention time read?
A: 10.3 min

Q: With `COc1cc(O)c(C(=O)c2ccccc2)cc1S(=O)(=O)O` as the molecule, how does the LC retention time read?
A: 6.4 min

Q: With `CCNc1nc(NC(C)(C)C)nc(OC)n1` as the molecule, how does the LC retention time read?
A: 9.07 min

Q: Which LC retention time does the source give for `Cc1ccc(C)c(OCCCC(C)(C)C(=O)O)c1` here?
A: 12.8 min

Q: With `CC(N)Cc1ccc2c(c1)OCO2` (stereo unspecified) as the molecule, how does the LC retention time read?
A: 2.97 min

Q: With `CCNc1nc(NC(C)C)[nH]c(=O)n1` as the molecule, how does the LC retention time read?
A: 3.93 min

Q: Which LC retention time does the source give for `CC(=O)OC1(C(C)=O)CCC2C3CC(C)C4=CC(=O)CCC4(C)C3CCC21C` (stereo unspecified) here?
A: 11.7 min

Q: For `CCCC1CC(C(=O)NC(C(C)O)C2OC(SC)C(O)C(O)C2O)N(C)C1` (stereo unspecified), which LC retention time is on record?
A: 3.13 min

Q: For `COc1nc(N)nc(NC(C)(C)C)n1`, which LC retention time is on record?
A: 6.25 min

Q: Which LC retention time does the source give for `C#CC1(O)CCC2C3CCc4cc(O)ccc4C3CCC21C` (stereo unspecified) here?
A: 10.1 min

Q: Which LC retention time does the source give for `CC(C)Cc1ccc(C(C)C(=O)O)cc1` (stereo unspecified) here?
A: 11.8 min

Q: For `CCCOC(=O)c1ccc(O)cc1`, which LC retention time is on record?
A: 8.97 min

Q: For `COc1cc2c(c3oc(=O)c4c(c13)CCC4=O)C1CCOC1O2` (stereo unspecified), which LC retention time is on record?
A: 6.76 min

Q: For `CCOC(=O)CC(SP(=S)(OC)OC)C(=O)OCC` (stereo unspecified), which LC retention time is on record?
A: 11 min

Q: Which LC retention time does the source give for `Cc1cc(C2CC2)nc(Nc2ccccc2)n1` here?
A: 11.4 min

Q: With `Cc1onc(-c2ccccc2)c1C(=O)NC1C(=O)N2C1SC(C)(C)C2C(=O)O` (stereo unspecified) as the molecule, how does the LC retention time read?
A: 8.19 min

Q: Which LC retention time does the source give for `CCSC(=O)N1CCCCCC1` here?
A: 10.4 min

Q: Which LC retention time does the source give for `CNC(=O)ON=C(C)SC` here?
A: 3.09 min

Q: Which LC retention time does the source give for `CC(COc1ccc(Oc2ccccc2)cc1)Oc1ccccn1` (stereo unspecified) here?
A: 13.4 min

Q: With `CNC(=O)CSP(=S)(OC)OC` as the molecule, how does the LC retention time read?
A: 4.63 min

Q: Which LC retention time does the source give for `CC12CCC3c4ccc(O)cc4CCC3C1CC(O)C2O` (stereo unspecified) here?
A: 6.96 min

Q: With `CN1C2CCC1C(C(=O)O)C(OC(=O)c1ccccc1)C2` (stereo unspecified) as the molecule, how does the LC retention time read?
A: 4.08 min

Q: For `CC(C)c1ccc(NC(=O)N(C)C)cc1`, which LC retention time is on record?
A: 8.83 min

Q: With `COc1ccc(C(=O)c2ccccc2)c(O)c1` as the molecule, how does the LC retention time read?
A: 11.1 min

Q: With `CCNc1nc(NC(C)(C)C)[nH]c(=O)n1` as the molecule, how does the LC retention time read?
A: 5.25 min

Q: Which LC retention time does the source give for `CNC(=O)Oc1cccc2ccccc12` here?
A: 7.81 min
